In patent publication US20050014751A1, “Use of n-acyl homoserine lactones for the treatment of insulitis” (priority 2001, published 2005):
One block for each compound: values may come before it.

Key:
[1] = test system: diabetes in NOD mice; assay: Alleviation of diabetes in NOD mice (incidence of diabetes, Uristix); format: in vivo; settings: above 6 mMol glucose/l = diabetes
Description: The ability of the lead compound (OdDHL) to alleviate diabetes in NOD mice was determined by treating the mice 3 times per week for 4 weeks at 30 mg/kg as above. DMSO and OHHL were used as controls.
Diabetes was diagnosed using Uristix and a level of above 6 mMol glucose/I was taken to indicate the presence of diabetes.

[2] = test system: murine splenocytes; assay: ConA mitogen-stimulated proliferation of murine splenocytes; format: cell-based, BALB/c mice; settings: ConA 1 μg/ml, 100,000 spleen cells, 1 mM to 0.1 μM
Description: The concanavalin A (ConA) cell proliferation assay was used to assess the effect of homoserine lactone (HSL) compounds on T-cell activation and proliferation. Proliferation was assessed by the incorporation of [^3H]-thymidine into DNA. Eight-week-old female BALB/c mice were obtained from Harlan (Bicester, Oxon, UK) and given food and water ad libitum. Splenocyte suspensions were prepared by removing the spleens and placing them into. RPMI 1640 medium. The spleens were forced through 70-μm-pore-size wire gauzes using the plunger from a 5-ml syringe to produce a single cell suspension. The cells were pelleted by centrifugation, and erythrocytes were lysed with 0.017M Tris, 0.144M ammonium chloride buffer, pH 7.2. Leucocytes were washed twice with RPMI 1640 medium with 2% (vol/vol) foetal calf serum (FCS) and resuspended in complete cell culture medium (CTCM) consisting of RPMI 1640 medium with 5% FCS, 2 mM L-glutamine, and 5×10^−5 M 2-mercaptoethanol. […] After the addition of 25 μl of MicroScint-O (Packard) to each well the filters were counted with the Packard TopCount scintillation counter. […]
(§1) In the cell culture assays the number of cells used (mouse splenocytes and human PBMC) was initially optimised to 100,000 cells per well. The optimal dose of ConA of 1 μg/ml used in the cell proliferation assays was determined from ConA titration curves. […]

[3] = test system: human PBMC; assay: ConA mitogen-stimulated proliferation of human PBMC; format: cell-based; settings: ConA 1 μg/ml, 100,000 PBMC
Description: Blood specimens were obtained with consent from healthy human volunteers. Human peripheral blood mononuclear cells (PBMC) were isolated from heparinised whole blood by buoyant density centrifugation over Histopaque 1077 (Sigma, Poole, UK) at 600 g for 20 minutes. PBMC harvested from the ‘buffy’ layers were washed twice with RPMI 1640 medium and resuspended in CTCM. HSL compounds were tested at similar dilutions as for murine splenocytes in 200 μl of CTCM, containing 1 μg/ml of ConA and 100,000 PBMC. Human PBMC were incubated for 48 h at 37° C. in 5% CO2-air, followed by pulsing with 0.25 μCi [^3H]-thymidine (see above). After a further incubation of 24 h cells were harvested onto fibreglass filters and then counted in the presence of MicroScint-O with the Packard TopCount.
Concanavalin induced cell proliferation of human peripheral blood mononuclear cells (PBMC) was tracked, as described in I above, by a measurement of counts per minute using the scintillation counter. The inhibitory effect of an HSL compound being tested on cell proliferation was indicated by a reduction in counts per minute. […]
as §1

[4] = test system: TNF-alpha production; assay: TNF-alpha production from LPS-stimulated human PBMC; format: cell-based
Description: Bacterial lipopolysaccharide (LPS) stimulates the production of a variety of cytokines, including TNF-alpha, from human PBMC; these cytokines in turn influence the development of T cells, supporting a T helper 1 conducive milieu. Human PBMC prepared from whole blood by buoyant density centrifugation were resuspended in CTCM. HSL compounds were again tested at similar dilutions as for murine splenocytes in 200 μl of CTCM, containing 5×10^−5 μg/ml LPS Escherichia coli strain 055:B5 (Sigma, Poole, UK) and 100,000 PBMC. Following incubation for 24 h at 37° C. in 5% CO2-air, the cell culture supernatants were collected and tested for TNF-alpha levels by ‘sandwich’ ELISA. Briefly, 96-well Nunc MaxiSorp (Life Technologies, Paisley, UK) plates were coated with 50 μl of a 2 μg/ml solution of mouse anti-human TNF-alpha monoclonal antibody (Pharmingen, UK) in 0.05 M carbonate/bicarbonate buffer, pH 9.6 overnight at 4° C. After washing the plates three times with PBS-Tween, which contained phosphate buffered saline (PBS) with 0.5% (vol/vol) Tween 20 (Sigma, Poole, UK), the plates were blocked with 1% (wt/vol) bovine serum albumin (BSA) (Sigma, Poole, UK) at room temperature for 2 h. […] Following four washes, the bound biotinylated antibody was detected with 50 μl of a 1:1,000 dilution of Streptavidin-peroxidase (Pharmingen, UK). […] The enzyme reaction was stopped with 50 μl of 2.5 M H2SO4 after an incubation of 10 minutes at room temperature and the development was read at 450 nm with a spectrophotometric 96-well plate reader (Dynex). […]
Similar studies were carried out using, as the HSL compounds, N-(12-bromo-3-oxododecanoyl)-L-homoserine lactone (12BrOdDHL) and N-(12-hydroxy-3-oxododecanoyl)-L-homoserine lactone (12hydroxyOdDHL) and the plots for these are shown in FIG. 9. […] The IC50 value for dexamethasone was determined to be 500.
as §1

Compound: CCCC(=O)CC(=O)N[C@H]1CCOC1=O [OHHL, N-(3-oxohexanoyl)-L-homoserine lactone, reference compound]
incidence of diabetes ([1]; Week of Experiment 20, 30 mg/kg 3 times per week for 4 weeks): 7/10 | incidence of diabetes ([1]; Week of Experiment 30, 30 mg/kg 3 times per week for 4 weeks, week 30 of experiment): 12/20

Compound: CCCCCC(=O)CC(=O)N[C@H]1CCOC1=O [OOHL, N-(3-oxooctanoyl)-L-homoserine lactone, reference compound]
inhibition of splenocyte proliferation ([3H]-thymidine cpm, FIG. 6) [2]: failed to inhibit proliferation

Compound: CCCCCCCCCCCC(=O)CC(=O)N[C@H]1CCOC1=O [OtDHL, N-(3-oxotetradecanoyl)-L-homoserine lactone]
inhibition of proliferation of human PBMC ([3H]-thymidine cpm, FIG. 7) [3]: inhibited proliferation | inhibition of TNF-α secretion (FIG. 8) ([4]; LPS 5×10^−5 μg/ml, 100,000 PBMC, 24 h, ELISA): inhibited the secretion

IC50 ([4]; LPS-stimulated human PBMC, unit from the IC50 definition, read-out: IC50, concentration which inhibits TNF-α secretion by 50%): 500 µM
Compound: C[C@@H]1C[C@H]2[C@@H]3CCC4=CC(=O)C=C[C@]4(C)[C@@]3(F)[C@@H](O)C[C@]2(C)[C@@]1(O)C(=O)CO [dexamethasone, reference compound]
